Patent US9708314B2, “Heterocyclic amide compound” (NISSAN CHEMICAL INDUSTRIES, LTD., priority 2013, dated 2017)

Tests used:
Assay type in all cases: in vivo
[1] = tested on: transplanted Oryza sativa; test: Test Example 1: effect on crop, application before weed generation in submerged conditions; conditions: Application herbicide amount 320 g/ha; Seventeenth Table
Method in brief: (§1)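 Pre-emergence water-surface application under 4 cm flooding, same day as sowing, with rice transplanted at 2.5 leaf stage. Dose given as g/ha. Plants grown at 25° C. to 30° C. and rated three weeks later on a 0 (≤5%) to 5 (≥90%) herbicidal-ratio scale.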

Scirpus juncoides = test: Test Example 1: herbicidal activity, application before weed generation in submerged conditions; conditions: Application herbicide amount 320 g/ha; Seventeenth Table
Method in brief: as §1

Monochoria vaginalis = test: as above; conditions: Application herbicide amount 320 g/ha; Seventeenth Table
Method in brief: as §1

[2] = tested on: Echinochloa oryzacola Vasing.; test: as above; conditions: Application herbicide amount 320 g/ha; Seventeenth Table
Method in brief: as §1

Brassica campestris L. = test: Test Example 4: effect on crop by application to foliage (diluvial soil, plastic box); conditions: application to foliage, application herbicide amount 320 g/ha
Method in brief: (§2)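 Seeds sown in sterilized diluvial soil, covered ~1.5 cm, grown 14 days in greenhouse at 25° C. to 30° C. Emulsion formulation diluted in water to set rate (g/ha) and sprayed onto stems and leaves. Effect scored visually 3 weeks later on 0–5 scale (5 = ≥90% herbicidal ratio, 0 = ≤5%).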

[3] = tested on: Beta vulgaris ssp. vulgaris; test: as above; conditions: application to foliage, application herbicide amount 320 g/ha
Method in brief: as §2

Triticum aestivum = test: as above; conditions: application to foliage, application herbicide amount 320 g/ha
Method in brief: as §2

Glycine max = test: as above; conditions: application to foliage, application herbicide amount 320 g/ha
Method in brief: as §2

[4] = tested on: directly sowed Oryza sativa; test: as above; conditions: application to foliage, application herbicide amount 320 g/ha
Method in brief: as §2

Zea mays = test: as above; conditions: application to foliage, application herbicide amount 320 g/ha
Method in brief: as §2

| Structure (SMILES) | a: transplanted Oryza sativa (effect on crop grade) [1] | B: Scirpus juncoides (herbicidal effect grade) (Scirpus juncoides) | C: Monochoria vaginalis (herbicidal effect grade) (Monochoria vaginalis) | A: Echinochloa oryzicola Vasing. (herbicidal effect grade) [2] | g (Brassica campestris L.) effect on crop (Brassica campestris L.) | f (Beta vulgaris ssp. vulgaris) effect on crop [3] | e (Triticum aestivum) effect on crop (Triticum aestivum) | c (Glycine max) effect on crop (Glycine max) | d (directly sowed Oryza sativa) effect on crop [4] | b (Zea mays) effect on crop (Zea mays) |
| --- | --- | --- | --- | --- | --- | --- | --- | --- | --- | --- |
| Cc1nnc(NC(=O)c2ccc(C(F)(F)F)n3c(S(C)(=O)=O)nnc23)o1 [1-040] | 1 (Herbicidal ratio of 5% or more and less than 20%) | 3 (Herbicidal ratio of 40% or more and less than 70%) | 3 (Herbicidal ratio of 40% or more and less than 70%) | 3 (Herbicidal ratio of 40% or more and less than 70%) | 1 (Herbicidal ratio of 5% or more and less than 20%) | 5 (Herbicidal ratio of 90% or more (almost completely withered)) | 3 (Herbicidal ratio of 40% or more and less than 70%) | 0 (Herbicidal ratio of 5% or less (almost no effect)) | 1 (Herbicidal ratio of 5% or more and less than 20%) | 0 (Herbicidal ratio of 5% or less (almost no effect)) |
| CCS(=O)(=O)c1nnc2c(C(=O)Nc3nnc(C)o3)ccc(C(F)(F)F)n12 [1-041] | 0 (Herbicidal ratio of 5% or less (almost no effect)) | 3 (Herbicidal ratio of 40% or more and less than 70%) | 3 (Herbicidal ratio of 40% or more and less than 70%) | 3 (Herbicidal ratio of 40% or more and less than 70%) | 0 (Herbicidal ratio of 5% or less (almost no effect)) | 5 (Herbicidal ratio of 90% or more (almost completely withered)) | 3 (Herbicidal ratio of 40% or more and less than 70%) | 0 (Herbicidal ratio of 5% or less (almost no effect)) | 2 (Herbicidal ratio of 20% or more and less than 40%) | 0 (Herbicidal ratio of 5% or less (almost no effect)) |
| CCOC(=O)Cc1nnc2c(C(=O)Nc3nnc(C)o3)ccc(C(F)(F)F)n12 [1-042] | 0 (Herbicidal ratio of 5% or less (almost no effect)) | 2 (Herbicidal ratio of 20% or more and less than 40%) | 2 (Herbicidal ratio of 20% or more and less than 40%) | 2 (Herbicidal ratio of 20% or more and less than 40%) | 3 (Herbicidal ratio of 40% or more and less than 70%) | 5 (Herbicidal ratio of 90% or more (almost completely withered)) | 0 (Herbicidal ratio of 5% or less (almost no effect)) | 1 (Herbicidal ratio of 5% or more and less than 20%) | 3 (Herbicidal ratio of 40% or more and less than 70%) | 0 (Herbicidal ratio of 5% or less (almost no effect)) |
| Cc1ccc(-c2nnc3c(C(=O)Nc4nnc(C)o4)ccc(C(F)(F)F)n23)cc1 [1-043] | 3 (Herbicidal ratio of 40% or more and less than 70%) | 3 (Herbicidal ratio of 40% or more and less than 70%) | 3 (Herbicidal ratio of 40% or more and less than 70%) | 5 (Herbicidal ratio of 90% or more (almost completely withered)) | 3 (Herbicidal ratio of 40% or more and less than 70%) | 5 (Herbicidal ratio of 90% or more (almost completely withered)) | 0 (Herbicidal ratio of 5% or less (almost no effect)) | 2 (Herbicidal ratio of 20% or more and less than 40%) | 2 (Herbicidal ratio of 20% or more and less than 40%) | 4 (Herbicidal ratio of 70% or more and less than 90%) |
| Cc1nnc(NC(=O)c2ccc(C(F)(F)F)n3c(-c4ccc(F)cc4)nnc23)o1 [1-044] | 1 (Herbicidal ratio of 5% or more and less than 20%) | 3 (Herbicidal ratio of 40% or more and less than 70%) | 3 (Herbicidal ratio of 40% or more and less than 70%) | 5 (Herbicidal ratio of 90% or more (almost completely withered)) | 4 (Herbicidal ratio of 70% or more and less than 90%) | 5 (Herbicidal ratio of 90% or more (almost completely withered)) | 0 (Herbicidal ratio of 5% or less (almost no effect)) | 0 (Herbicidal ratio of 5% or less (almost no effect)) | 3 (Herbicidal ratio of 40% or more and less than 70%) | 0 (Herbicidal ratio of 5% or less (almost no effect)) |
| COc1cccc(-c2nnc3c(C(=O)Nc4nnc(C)o4)ccc(C(F)(F)F)n23)c1 [1-046] | 2 (Herbicidal ratio of 20% or more and less than 40%) | 3 (Herbicidal ratio of 40% or more and less than 70%) | 3 (Herbicidal ratio of 40% or more and less than 70%) | 5 (Herbicidal ratio of 90% or more (almost completely withered)) | 4 (Herbicidal ratio of 70% or more and less than 90%) | 5 (Herbicidal ratio of 90% or more (almost completely withered)) | 0 (Herbicidal ratio of 5% or less (almost no effect)) | 2 (Herbicidal ratio of 20% or more and less than 40%) | 3 (Herbicidal ratio of 40% or more and less than 70%) | 1 (Herbicidal ratio of 5% or more and less than 20%) |
| COc1ccccc1-c1nnc2c(C(=O)Nc3nnc(C)o3)ccc(C(F)(F)F)n12 [1-047] | 1 (Herbicidal ratio of 5% or more and less than 20%) | 3 (Herbicidal ratio of 40% or more and less than 70%) | 2 (Herbicidal ratio of 20% or more and less than 40%) | 4 (Herbicidal ratio of 70% or more and less than 90%) | 4 (Herbicidal ratio of 70% or more and less than 90%) | 5 (Herbicidal ratio of 90% or more (almost completely withered)) | 0 (Herbicidal ratio of 5% or less (almost no effect)) | 1 (Herbicidal ratio of 5% or more and less than 20%) | 3 (Herbicidal ratio of 40% or more and less than 70%) | 0 (Herbicidal ratio of 5% or less (almost no effect)) |
